Laboratory results: PubChem BioAssay AID1259407 (Chemical Carcinogenesis Research Information System (CCRIS), 2018)
The source made the active and inactive calls. No rule for the calls is given here.

Tested on: CCRIS mutagenicity, Ames/micronucleus/aberration tests
Assay: CCRIS mutagenicity studies
[1] = Test System: AMES SALMONELLA TYPHIMURIUM, Strain/Indicator: TA98, Metabolic Activation: NONE, Method: PREINCUBATION
[2] = Test System: AMES SALMONELLA TYPHIMURIUM, Strain/Indicator: TA100, Metabolic Activation: NONE, Method: PREINCUBATION
[3] = Test System: AMES SALMONELLA TYPHIMURIUM, Strain/Indicator: TA98, Metabolic Activation: NONE, Method: STANDARD PLATE
[4] = Test System: AMES SALMONELLA TYPHIMURIUM, Strain/Indicator: TA100, Metabolic Activation: NONE, Method: STANDARD PLATE
[5] = Test System: AMES SALMONELLA TYPHIMURIUM, Strain/Indicator: TA1535, Metabolic Activation: NONE, Method: STANDARD PLATE
[6] = Test System: AMES SALMONELLA TYPHIMURIUM, Strain/Indicator: TA1537, Metabolic Activation: NONE, Method: STANDARD PLATE
[7] = Test System: AMES SALMONELLA TYPHIMURIUM, Strain/Indicator: TA1538, Metabolic Activation: NONE, Method: STANDARD PLATE

Cc1c(N)cccc1N=Nc1cccc(N)c1C
mutagenic call [1]: inactive; negative | mutagenic call (Test System: AMES SALMONELLA TYPHIMURIUM, Strain/Indicator: TA98, Metabolic Activation: RAT, LIVER, S-9, PHENOBARBITAL AND 5,6-BENZOFLAVONE, Method: PREINCUBATION): active; positive | mutagenic call [2]: inactive; negative | mutagenic call (Test System: AMES SALMONELLA TYPHIMURIUM, Strain/Indicator: TA100, Metabolic Activation: RAT, LIVER, S-9, PHENOBARBITAL AND 5,6-BENZOFLAVONE, Method: PREINCUBATION): active; positive

Nc1ccn([C@@H]2O[C@H](CO)[C@@H](O)C2(F)F)c(=O)n1
mutagenic call (End Point: CHROMOSOMAL ABERRATIONS, Test System: BONE MARROW, Species: MOUSE, Strain/Sex: SWISS/MALE, FEMALE, Route: INTRAPERITONEAL): active; positive (structural changes) | mutagenic call (End Point: IN VITRO CHROMOSOMAL ABERRATIONS, Test System: HUMAN PERIPHERAL LYMPHOCYTES, Metabolic Activation: NONE): active; positive; (structural changes: breaks, fragments) | mutagenic call (End Point: IN VITRO CHROMOSOMAL ABERRATIONS, Test System: HUMAN PERIPHERAL LYMPHOCYTES, Strain/Sex: MALE, FEMALE, Metabolic Activation: NONE): active; positive (structural changes) | mutagenic call (End Point: MICRONUCLEUS, Test System: BONE MARROW, Species: MOUSE, Strain/Sex: SWISS/MALE, FEMALE, Route: INTRAPERITONEAL): active; positive

ClCc1ccc2ccc3cc4ccccc4c4ccc1c2c34
mutagenic call [3]: inactive; negative | mutagenic call [4]: inactive; negative

O=C(Cl)Cc1ccccc1
mutagenic call [1]: active; positive | mutagenic call (Test System: AMES SALMONELLA TYPHIMURIUM, Strain/Indicator: TA98, Metabolic Activation: RAT LIVER S-9, PCB, Method: PREINCUBATION): active; positive | mutagenic call [2]: active; positive | mutagenic call (Test System: AMES SALMONELLA TYPHIMURIUM, Strain/Indicator: TA100, Metabolic Activation: RAT LIVER S-9, PCB, Method: PREINCUBATION): active; positive | mutagenic call (Test System: AMES SALMONELLA TYPHIMURIUM, Strain/Indicator: TA104, Metabolic Activation: NONE, Method: PREINCUBATION): active; positive | mutagenic call (Test System: AMES SALMONELLA TYPHIMURIUM, Strain/Indicator: TA104, Metabolic Activation: RAT LIVER S-9, PCB, Method: PREINCUBATION): active; positive | mutagenic call (Test System: E.COLI, Strain/Indicator: WP2 UVRA, Metabolic Activation: NONE, Method: PREINCUBATION): active; positive | mutagenic call (Test System: E.COLI, Strain/Indicator: WP2 UVRA, Metabolic Activation: RAT LIVER S-9, PCB, Method: PREINCUBATION): active; positive

CCN(CCCl)CCCNc1c2ccccc2nc2ccccc12
mutagenic call [3]: active; positive | mutagenic call [4]: active; positive | mutagenic call [5]: inactive; negative | mutagenic call (Test System: AMES SALMONELLA TYPHIMURIUM, Strain/Indicator: TA1536, Metabolic Activation: NONE, Method: STANDARD PLATE): active; positive | mutagenic call [6]: active; positive | mutagenic call [7]: active; positive

NOS(=O)(=O)O
mutagenic call (Test System: AMES SALMONELLA TYPHIMURIUM, Strain/Indicator: G46, Metabolic Activation: RAT, LIVER, S-9, AROCLOR 1254, Method: STANDARD PLATE): active; positive | mutagenic call (Test System: AMES SALMONELLA TYPHIMURIUM, Strain/Indicator: TA100, Metabolic Activation: RAT, LIVER, S-9, AROCLOR 1254, Method: STANDARD PLATE): inactive; negative

Cc1c(-c2ccccc2)oc2c(C(=O)OCCN3CCCCC3)cccc2c1=O
mutagenic call [3]: inactive; negative | mutagenic call (Test System: AMES SALMONELLA TYPHIMURIUM, Strain/Indicator: TA98, Metabolic Activation: S-9, Method: STANDARD PLATE): inactive; negative | mutagenic call [4]: inactive; negative | mutagenic call (Test System: AMES SALMONELLA TYPHIMURIUM, Strain/Indicator: TA100, Metabolic Activation: S-9, Method: STANDARD PLATE): inactive; negative | mutagenic call [5]: inactive; negative | mutagenic call (Test System: AMES SALMONELLA TYPHIMURIUM, Strain/Indicator: TA1535, Metabolic Activation: S-9, Method: STANDARD PLATE): inactive; negative | mutagenic call [6]: inactive; negative | mutagenic call (Test System: AMES SALMONELLA TYPHIMURIUM, Strain/Indicator: TA1537, Metabolic Activation: S-9, Method: STANDARD PLATE): inactive; negative | mutagenic call [7]: inactive; negative | mutagenic call (Test System: AMES SALMONELLA TYPHIMURIUM, Strain/Indicator: TA1538, Metabolic Activation: S-9, Method: STANDARD PLATE): inactive; negative
